Test results reported in patent US12202835B2, “Substituted aromatic ring-linked dioxinoquinazolines and dioxinoquinolines as kinase inhibitors” (BEIJING SCITECH-MQ PHARMACEUTICALS LIMITED, priority 2018, dated 2025).

Columns and labels:
[1] = molecular target: MER kinase (Homo sapiens (Human), UniProt Q12866); experiment: Assay of small molecular compounds for inhibiting the activity of MER kinase (LANCE TR-FRET); assay type: biochemical
Method in brief: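 MER kinase preincubated 5 min at RT with compound (11 points, 0.042-2500 nM final), then ULight-poly GT and ATP added (4× stocks 200 nM and 20 μM) for 60 min at RT, 1% DMSO. Phosphorylation detected by LANCE TR-FRET; IC50 from % inhibition versus controls.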

[2] = molecular target: VEGFR-2 kinase (Homo sapiens (Human), UniProt P35968); experiment: Assay of small molecular compounds for inhibiting the activity of VEGFR-2 kinase (LANCE TR-FRET); assay type: biochemical; conditions: read-out: VEGFR2 IC50
Method in brief: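 LANCE TR-FRET with human VEGFR-2 (2× stock 0.5 nM) preincubated 30 min with compound (final 2500 to 0.042 nM, 11-point 3-fold), then ULight-JAK-1 (Tyr1023) peptide/ATP added (4× stocks 200 nM/40 μM). Reaction 60 min room temperature, 4% DMSO; IC50 from inhibition-rate curve.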

Chain of VEGFR-2 kinase (P35968 20-1356): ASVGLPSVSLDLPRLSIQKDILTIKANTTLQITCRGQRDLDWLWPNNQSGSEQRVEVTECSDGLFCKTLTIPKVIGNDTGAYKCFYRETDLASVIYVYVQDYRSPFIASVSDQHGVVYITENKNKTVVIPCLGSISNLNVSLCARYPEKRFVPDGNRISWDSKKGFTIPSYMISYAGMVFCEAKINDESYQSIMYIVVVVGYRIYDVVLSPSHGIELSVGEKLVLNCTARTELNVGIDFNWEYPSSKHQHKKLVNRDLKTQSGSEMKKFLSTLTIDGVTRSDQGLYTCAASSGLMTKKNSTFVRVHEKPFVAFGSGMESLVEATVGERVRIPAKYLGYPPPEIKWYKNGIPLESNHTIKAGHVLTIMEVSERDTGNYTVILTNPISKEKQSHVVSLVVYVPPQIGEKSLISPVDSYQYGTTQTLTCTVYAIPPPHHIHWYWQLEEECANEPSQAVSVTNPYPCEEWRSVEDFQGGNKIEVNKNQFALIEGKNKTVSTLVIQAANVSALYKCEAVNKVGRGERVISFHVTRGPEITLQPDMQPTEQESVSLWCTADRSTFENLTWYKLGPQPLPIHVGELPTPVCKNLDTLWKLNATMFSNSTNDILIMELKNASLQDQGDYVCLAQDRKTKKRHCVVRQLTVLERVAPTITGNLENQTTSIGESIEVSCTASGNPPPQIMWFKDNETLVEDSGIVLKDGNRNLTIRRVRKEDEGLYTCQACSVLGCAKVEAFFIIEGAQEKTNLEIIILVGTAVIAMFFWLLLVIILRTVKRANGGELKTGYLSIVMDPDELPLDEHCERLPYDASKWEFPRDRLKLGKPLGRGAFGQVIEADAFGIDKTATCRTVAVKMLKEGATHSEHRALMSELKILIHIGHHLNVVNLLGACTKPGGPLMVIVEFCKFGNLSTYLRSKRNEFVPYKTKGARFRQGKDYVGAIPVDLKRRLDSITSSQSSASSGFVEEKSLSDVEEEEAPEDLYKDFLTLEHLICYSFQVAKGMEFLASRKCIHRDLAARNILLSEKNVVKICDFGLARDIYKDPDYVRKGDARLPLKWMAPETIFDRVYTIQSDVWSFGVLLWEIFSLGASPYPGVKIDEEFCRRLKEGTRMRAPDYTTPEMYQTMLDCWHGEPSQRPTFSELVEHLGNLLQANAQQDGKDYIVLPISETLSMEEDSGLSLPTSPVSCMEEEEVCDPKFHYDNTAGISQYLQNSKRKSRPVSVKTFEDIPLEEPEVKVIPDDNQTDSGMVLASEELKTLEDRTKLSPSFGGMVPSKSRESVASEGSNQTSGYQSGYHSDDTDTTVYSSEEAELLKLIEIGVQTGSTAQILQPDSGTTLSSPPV
Chain of MER kinase (Q12866 21-999): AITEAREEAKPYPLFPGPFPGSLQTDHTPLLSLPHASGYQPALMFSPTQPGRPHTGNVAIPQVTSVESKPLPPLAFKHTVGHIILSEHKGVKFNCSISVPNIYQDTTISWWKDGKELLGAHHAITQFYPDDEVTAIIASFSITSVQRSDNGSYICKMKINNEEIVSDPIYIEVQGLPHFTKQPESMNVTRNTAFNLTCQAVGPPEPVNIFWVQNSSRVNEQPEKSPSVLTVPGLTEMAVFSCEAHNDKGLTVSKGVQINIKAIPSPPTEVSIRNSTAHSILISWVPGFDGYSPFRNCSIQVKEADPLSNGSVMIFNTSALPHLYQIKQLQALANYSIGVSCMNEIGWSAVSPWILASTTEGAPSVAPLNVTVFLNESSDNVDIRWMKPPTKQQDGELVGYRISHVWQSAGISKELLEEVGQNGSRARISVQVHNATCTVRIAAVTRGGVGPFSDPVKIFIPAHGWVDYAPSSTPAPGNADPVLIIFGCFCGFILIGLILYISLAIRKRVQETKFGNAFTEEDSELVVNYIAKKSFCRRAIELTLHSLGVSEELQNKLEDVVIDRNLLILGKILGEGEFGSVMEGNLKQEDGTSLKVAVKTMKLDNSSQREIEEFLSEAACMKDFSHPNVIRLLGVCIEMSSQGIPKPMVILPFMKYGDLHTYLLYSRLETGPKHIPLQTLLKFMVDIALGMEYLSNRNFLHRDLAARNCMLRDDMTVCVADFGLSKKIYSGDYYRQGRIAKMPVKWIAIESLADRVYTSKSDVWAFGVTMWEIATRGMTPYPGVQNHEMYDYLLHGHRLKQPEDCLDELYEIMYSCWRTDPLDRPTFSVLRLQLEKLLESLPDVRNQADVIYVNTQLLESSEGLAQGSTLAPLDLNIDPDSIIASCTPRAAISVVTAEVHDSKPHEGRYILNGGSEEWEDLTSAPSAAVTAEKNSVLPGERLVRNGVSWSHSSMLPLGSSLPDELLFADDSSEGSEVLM

Compound	IC50 [1] [nM]	IC50 [2] [nM]
CCOc1ccn(-c2ccc(F)cc2)c(=O)c1C(=O)Nc1ccc(Oc2ncnc3cc(OCCCN4CCOCC4)c4c(c23)OCCO4)c(F)c1 [Example 6, N-(3-fluoro-4-((5-(3-morpholinopropoxy)-2,3-dihydro-[1,4]dioxino[2,3-f]quinazolin-10-yl)oxy)phenyl)-1-(4-fluorophenyl)-4-ethoxy-2-oxo-1,2-dihydropyridine-3-carboxamide]	≤ 50	50 to 500
COc1cc2ncnc(Oc3ccc(NC(=O)c4cn(C)c(=O)n(-c5ccc(F)cc5)c4=O)cc3F)c2c2c1OCCO2 [Example 29, N-(3-fluoro-4-((5-methoxy-2,3-dihydro-[1,4]dioxino[2,3-f]quinazolin-10-yl)oxy)phenyl)-3-(4-fluorophenyl)-1-methyl-2,4-dioxo-1,2,3,4-tetrahydropyrimidine-5-carboxamide]	≤ 50	500 to 5000
Cn1cc(C(=O)Nc2ccc(Oc3ncnc4cc(OCCCN5CCOCC5)c5c(c34)OCCO5)c(F)c2)c(=O)n(-c2ccc(F)cc2)c1=O [Example 30, N-(3-fluoro-4-((5-(3-morpholinopropoxy)-2,3-dihydro-[1,4]dioxino[2,3-f]quinazolin-10-yl)oxy)phenyl)-3-(4-fluorophenyl)-1-methyl-2,4-dioxo-1,2,3,4-tetrahydropyrimidine-5-carboxamide]	≤ 50	≤ 50
CCOc1cc2nccc(Oc3ccc(NC(=O)c4c(OC)ccn(-c5ccc(F)cc5)c4=O)c(Cl)c3)c2c2c1OCCO2 [Example 128, N-(2-chloro-4-((5-ethoxy-2,3-dihydro-[1,4]dioxino[2,3-f]quinolin-10-yl)oxy)phenyl)-1-(4-fluorophenyl)-4-methoxy-2-oxo-1,2-dihydropyridine-3-carboxamide]	≤ 50	500 to 5000
CCOc1cc2nccc(Oc3ccc(NC(=O)c4cn(C)c(=O)n(-c5ccc(F)cc5)c4=O)c(Cl)c3)c2c2c1OCCO2 [Example 129, N-(2-chloro-4-((5-ethoxy-2,3-dihydro-[1,4]dioxino[2,3-f]quinolin-10-yl)oxy)phenyl)-3-(4-fluorophenyl)-1-methyl-2,4-dioxo-1,2,3,4-tetrahydropyrimidine-5-carboxamide]	≤ 50	500 to 5000
CCOc1cc2nccc(Oc3ccc(NC(=O)c4c(OCC)ccn(-c5ccc(F)cc5)c4=O)c(Cl)c3)c2c2c1OCCO2 [Example 130, N-(2-chloro-4-((5-ethoxy-2,3-dihydro-[1,4]dioxino[2,3-f]quinolin-10-yl)oxy)phenyl)-1-(4-fluorophenyl)-4-ethoxy-2-oxo-1,2-dihydropyridine-3-carboxamide]	≤ 50	50 to 500
O=C(Nc1ccc(Oc2ccnc3cc(OCCCN4CCCCC4)c4c(c23)OCCO4)cc1Cl)c1cccn(-c2ccc(F)cc2)c1=O [Example 135, N-(2-chloro-4-((5-((3-piperidin-1-yl)propoxy)-2,3-dihydro-[1,4]dioxino[2,3-f]quinolin-10-yl)oxy)phenyl)-1-(4-fluorophenyl)-2-oxo-1,2-dihydropyridine-3-carboxamide]	≤ 50	≤ 50
COc1ccn(-c2ccc(F)cc2)c(=O)c1C(=O)Nc1ccc(Oc2ccnc3cc(OCCCN4CCCCC4)c4c(c23)OCCO4)cc1Cl [Example 136, N-(2-chloro-4-((5-((3-piperidin-1-yl)propoxy)-2,3-dihydro-[1,4]dioxino[2,3-f]quinolin-10-yl)oxy)phenyl)-1-(4-fluorophenyl)-4-methoxy-2-oxo-1,2-dihydropyridine-3-carboxamide]	≤ 50	50 to 500
COCCOc1cc2nccc(Oc3ccc(NC(=O)c4cn(C)c(=O)n(-c5ccc(F)cc5)c4=O)cc3)c2c2c1OCCO2 [Example 147, N-(4-((5-(2-methoxyethoxy)-2,3-dihydro-[1,4]dioxino[2,3-f]quinolin-10-yl)oxy)phenyl)-3-(4-fluorophenyl)-1-methyl-2,4-dioxo-1,2,3,4-tetrahydropyrimidine-5-carboxamide]	–	50 to 500
CCn1cc(C(=O)Nc2ccc(Oc3ccnc4cc(OCCOC)c5c(c34)OCCO5)cc2)c(=O)n(-c2ccc(F)cc2)c1=O [Example 148, N-(4-((5-(2-methoxyethoxy)-2,3-dihydro-[1,4]dioxino[2,3-f]quinolin-10-yl)oxy)phenyl)-3-(4-fluorophenyl)-1-ethyl-2,4-dioxo-1,2,3,4-tetrahydropyrimidine-5-carboxamide]	–	500 to 5000
Cn1cc(C(=O)Nc2ccc(Oc3ccnc4cc(OCC(C)(C)O)c5c(c34)OCCO5)cc2)c(=O)n(-c2ccc(F)cc2)c1=O [Example 149, N-(4-((5-(2-hydroxy-2-methylpropoxy)-2,3-dihydro-[1,4]dioxino[2,3-f]quinolin-10-yl)oxy)phenyl)-3-(4-fluorophenyl)-1-methyl-2,4-dioxo-1,2,3,4-tetrahydropyrimidine-5-carboxamide]	–	500 to 5000
CCn1cc(C(=O)Nc2ccc(Oc3ccnc4cc(OCC(C)(C)O)c5c(c34)OCCO5)cc2)c(=O)n(-c2ccc(F)cc2)c1=O [Example 150, N-(4-((5-(2-hydroxy-2-methylpropoxy)-2,3-dihydro-[1,4]dioxino[2,3-f]quinolin-10-yl)oxy)phenyl)-3-(4-fluorophenyl)-1-ethyl-2,4-dioxo-1,2,3,4-tetrahydropyrimidine-5-carboxamide]	–	500 to 5000
COc1cc2nccc(Oc3ccc(NC(=O)c4cn(C)c(=O)n(-c5ccc(F)cc5)c4=O)c(F)c3)c2c2c1OCCO2 [Example 153, N-(2-fluoro-4-((5-methoxy-2,3-dihydro-[1,4]dioxino[2,3-f]quinolin-10-yl)oxy)phenyl)-3-(4-fluorophenyl)-1-methyl-2,4-dioxo-1,2,3,4-tetrahydropyrimidine-5-carboxamide]	–	500 to 5000
CCn1cc(C(=O)Nc2ccc(Oc3ccnc4cc(OCCOC)c5c(c34)OCCO5)cc2F)c(=O)n(-c2ccc(F)cc2)c1=O [Example 156, N-(2-fluoro-4-((5-(2-methoxyethoxy)-2,3-dihydro-[1,4]dioxino[2,3-f]quinolin-10-yl)oxy)phenyl)-3-(4-fluorophenyl)-1-ethyl-2,4-dioxo-1,2,3,4-tetrahydropyrimidine-5-carboxamide]	–	500 to 5000

Now from value to compound:

IC50 [1] [nM]	IC50 [2] [nM]	Compound
≤ 50	500 to 5000	CC(C)n1cc(C(=O)Nc2ccc(Oc3ccnc4cc(OCCCN5CCOCC5)c5c(c34)OCCO5)c(Cl)c2)c(=O)n(-c2ccc(F)cc2)c1=O [Example 97, N-(3-chloro-4-((5-(3-morpholinopropoxy)-2,3-dihydro-[1,4]dioxino[2,3-f]quinolin-10-yl)oxy)phenyl)-3-(4-fluorophenyl)-1-isopropyl-2,4-dioxo-1,2,3,4-tetrahydropyrimidine-5-carboxamide]
50 to 500	–	COc1cc2nccc(Oc3ccc(NC(=O)c4cn(C)c(=O)n(-c5ccc(F)cc5)c4=O)c(Cl)c3)c2c2c1OCCO2 [Example 125, N-(2-chloro-4-((5-methoxy-2,3-dihydro-[1,4]dioxino[2,3-f]quinolin-10-yl)oxy)phenyl)-3-(4-fluorophenyl)-1-methyl-2,4-dioxo-1,2,3,4-tetrahydropyrimidine-5-carboxamide]
≤ 50	500 to 5000	CCOc1cc2nccc(Oc3ccc(NC(=O)c4cccn(-c5ccc(F)cc5)c4=O)c(Cl)c3)c2c2c1OCCO2 [Example 127, N-(2-chloro-4-((5-ethoxy-2,3-dihydro-[1,4]dioxino[2,3-f]quinolin-10-yl)oxy)phenyl)-1-(4-fluorophenyl)-2-oxo-1,2-dihydropyridine-3-carboxamide]
≤ 50	50 to 500	Cn1cc(C(=O)Nc2ccc(Oc3ccnc4cc(OCCCN5CCCCC5)c5c(c34)OCCO5)cc2Cl)c(=O)n(-c2ccc(F)cc2)c1=O [Example 137, N-(2-chloro-4-((5-((3-piperidin-1-yl)propoxy)-2,3-dihydro-[1,4]dioxino[2,3-f]quinolin-10-yl)oxy)phenyl)-3-(4-fluorophenyl)-1-methyl-2,4-dioxo-1,2,3,4-tetrahydropyrimidine-5-carboxamide]
–	500 to 5000	COc1cc2nccc(Oc3ccc(NC(=O)c4cn(C)c(=O)n(-c5ccc(F)cc5)c4=O)cc3)c2c2c1OCCO2 [Example 145, N-(4-((5-methoxy-2,3-dihydro-[1,4]dioxino[2,3-f]quinolin-10-yl)oxy)phenyl)-3-(4-fluorophenyl)-1-methyl-2,4-dioxo-1,2,3,4-tetrahydropyrimidine-5-carboxamide]
–	> 5000	CCn1cc(C(=O)Nc2ccc(Oc3ccnc4cc(OC)c5c(c34)OCCO5)cc2)c(=O)n(-c2ccc(F)cc2)c1=O [Example 146, N-(4-((5-methoxy-2,3-dihydro-[1,4]dioxino[2,3-f]quinolin-10-yl)oxy)phenyl)-3-(4-fluorophenyl)-1-ethyl-2,4-dioxo-1,2,3,4-tetrahydropyrimidine-5-carboxamide]
–	500 to 5000	COCCOc1cc2nccc(Oc3ccc(NC(=O)c4cn(C)c(=O)n(-c5ccc(F)cc5)c4=O)c(F)c3)c2c2c1OCCO2 [Example 155, N-(2-fluoro-4-((5-(2-methoxyethoxy)-2,3-dihydro-[1,4]dioxino[2,3-f]quinolin-10-yl)oxy)phenyl)-3-(4-fluorophenyl)-1-methyl-2,4-dioxo-1,2,3,4-tetrahydropyrimidine-5-carboxamide]
–	500 to 5000	CCn1cc(C(=O)Nc2cc(F)c(Oc3ccnc4cc(OCCOC)c5c(c34)OCCO5)cc2C)c(=O)n(-c2ccc(F)cc2)c1=O [Example 180, N-(5-fluoro-4-((5-(2-methoxyethoxy)-2,3-dihydro-[1,4]dioxino[2,3-f]quinolin-10-yl)oxy)-2-methylphenyl)-3-(4-fluorophenyl)-1-ethyl-2,4-dioxo-1,2,3,4-tetrahydropyrimidine-5-carboxamide]
